Experimental data reported in patent US9120820B2, “Fluorescent molecular probes for use in assays that measure test compound competitive binding with SAM-utilizing proteins” (CAYMAN CHEMICAL COMPANY, INCORPORATED, priority 2011, dated 2015).

Legend:
Format in all cases: biochemical
PRMT6 = biological target: T1, PRMT6 (Homo sapiens, UniProt Q96LA8); assay: Radiometric methyltransferase assay, PRMT6; details: PRMT6 120 nM; compound 10 μM, 1 μM, or 0.1 μM; FIG. 13
T1 construct: made in house; host or cells: baculovirus expression
Experimental: (§1) Reagents: Compound 16A was prepared by the method described in Example 4 and illustrated in FIG. 5. The Compounds 20A-iv and 20A-iii were prepared according to methods described in Example 6 and illustrated in FIG. 7. Enzymes were obtained from the Cayman Catalog with the exception of PRMT4 and PRMT6, which were produced in baculovirus and purified to near homogeneity using Ni-affinity chromatography. Human core histones were purified from HeLa nuclear pellet per the method of Coté et al. S-adenosylmethionine (SAM) was obtained from Sigma-Aldrich (Cat #A7007) and S-[methyl-3H]-SAM was obtained from Perkin-Elmer ([…]). Methods: […] To this was added enzyme diluted to provide a final assay concentration (GLP: 10 nM; PRMT1: 100 nM; SET7/9: 120 nM; PRDM9: 120 nM; PRMT4: 150 nM; PRMT6: 120 nM; G9a: 200 nM) and the compound was allowed to preincubate for 10 minutes at room temperature. […] Samples were mixed immediately after quenching and transferred to a 96-well GFC Uni-Filter microtiter filter plate (Perkin Elmer, Cat#6005174) that contained 50 μl of 20% TCA. Samples were allowed to precipitate for at least 5 minutes at room temperature. The samples were filtered onto the GFC membrane and washed four times with 100 μl of 10% TCA and once with 100 μl of 95% EtOH. To each well was added 25 μl of MicroScint-20 (Perkin-Elmer Cat#6013621) and samples were analyzed using a TopCount NXT microplate scintillation counter. The experiment was performed one time in duplicate for all compound concentrations tested and in triplicate for the vehicle and no enzyme controls. All data was analyzed in GraphPad Prism (v. 5.04).

PRDM9 = biological target: T2, PRDM9 (Homo sapiens, UniProt Q9NQV7); assay: Radiometric methyltransferase assay, PRDM9; details: PRDM9 120 nM; compound 10 μM, 1 μM, or 0.1 μM; FIG. 13
T2 construct: purchased Cayman
Experimental: as §1

PRMT4 = biological target: T3, PRMT4 (Homo sapiens, UniProt Q86X55); assay: Radiometric methyltransferase assay, PRMT4; details: PRMT4 150 nM; compound 10 μM, 1 μM, or 0.1 μM; FIG. 13
T3 construct: made in house
T3 sequence (Q86X55 1-608): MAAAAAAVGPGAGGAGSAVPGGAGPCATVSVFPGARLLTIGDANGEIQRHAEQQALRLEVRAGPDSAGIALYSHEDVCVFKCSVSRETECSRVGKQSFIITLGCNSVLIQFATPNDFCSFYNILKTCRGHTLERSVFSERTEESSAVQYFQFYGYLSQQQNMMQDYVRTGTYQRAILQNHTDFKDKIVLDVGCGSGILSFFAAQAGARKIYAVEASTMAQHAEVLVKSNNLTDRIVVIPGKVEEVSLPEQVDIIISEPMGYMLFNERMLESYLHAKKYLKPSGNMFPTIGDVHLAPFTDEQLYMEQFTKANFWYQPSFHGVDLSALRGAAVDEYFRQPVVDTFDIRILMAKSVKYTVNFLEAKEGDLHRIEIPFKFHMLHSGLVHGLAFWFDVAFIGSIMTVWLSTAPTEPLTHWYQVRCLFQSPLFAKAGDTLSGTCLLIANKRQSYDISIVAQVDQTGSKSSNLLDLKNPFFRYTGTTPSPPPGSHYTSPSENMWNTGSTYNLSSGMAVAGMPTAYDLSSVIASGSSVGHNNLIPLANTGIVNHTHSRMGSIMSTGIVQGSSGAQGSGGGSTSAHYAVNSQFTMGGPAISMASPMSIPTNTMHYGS
Experimental: as §1

GLP = biological target: T4, GLP (Homo sapiens, UniProt Q9H9B1); assay: Radiometric methyltransferase assay, GLP; details: GLP 10 nM; compound 10 μM, 1 μM, or 0.1 μM; FIG. 13
T4 sequence (Q9H9B1 1-1298): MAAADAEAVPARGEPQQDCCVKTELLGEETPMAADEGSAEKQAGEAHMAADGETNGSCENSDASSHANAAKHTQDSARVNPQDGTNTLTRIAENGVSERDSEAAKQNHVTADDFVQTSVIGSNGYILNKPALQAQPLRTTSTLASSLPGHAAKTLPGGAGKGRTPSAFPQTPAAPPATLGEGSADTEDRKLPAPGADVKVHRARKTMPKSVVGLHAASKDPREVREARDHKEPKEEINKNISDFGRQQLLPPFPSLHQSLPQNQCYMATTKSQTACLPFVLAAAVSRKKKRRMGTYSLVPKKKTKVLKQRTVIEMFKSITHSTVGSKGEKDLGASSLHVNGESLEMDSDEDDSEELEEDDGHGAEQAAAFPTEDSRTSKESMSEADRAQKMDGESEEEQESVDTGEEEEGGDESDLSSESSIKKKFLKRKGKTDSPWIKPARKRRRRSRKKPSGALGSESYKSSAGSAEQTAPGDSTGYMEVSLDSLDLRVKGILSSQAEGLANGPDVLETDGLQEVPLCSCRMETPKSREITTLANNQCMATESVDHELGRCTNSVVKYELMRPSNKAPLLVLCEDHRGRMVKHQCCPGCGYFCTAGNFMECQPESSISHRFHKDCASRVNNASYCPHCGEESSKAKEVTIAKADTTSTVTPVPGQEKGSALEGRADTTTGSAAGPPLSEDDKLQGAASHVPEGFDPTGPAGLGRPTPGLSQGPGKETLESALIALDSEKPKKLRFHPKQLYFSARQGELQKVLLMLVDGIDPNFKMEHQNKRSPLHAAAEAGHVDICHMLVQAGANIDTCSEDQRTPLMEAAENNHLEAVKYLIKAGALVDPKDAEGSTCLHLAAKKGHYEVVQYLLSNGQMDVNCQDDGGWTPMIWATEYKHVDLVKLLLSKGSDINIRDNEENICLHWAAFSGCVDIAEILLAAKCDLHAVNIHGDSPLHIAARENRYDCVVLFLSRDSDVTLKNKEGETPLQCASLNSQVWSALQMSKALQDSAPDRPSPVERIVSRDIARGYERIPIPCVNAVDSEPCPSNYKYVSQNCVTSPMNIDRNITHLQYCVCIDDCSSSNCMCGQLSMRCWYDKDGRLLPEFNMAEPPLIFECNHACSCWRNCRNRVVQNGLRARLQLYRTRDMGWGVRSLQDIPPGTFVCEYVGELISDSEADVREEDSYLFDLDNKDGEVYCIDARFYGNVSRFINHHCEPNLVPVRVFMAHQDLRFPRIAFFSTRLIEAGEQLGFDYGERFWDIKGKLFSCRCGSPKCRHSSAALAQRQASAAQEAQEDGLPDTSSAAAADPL
Experimental: as §1

T2 sequence (Q9NQV7 whole entry, species assumed): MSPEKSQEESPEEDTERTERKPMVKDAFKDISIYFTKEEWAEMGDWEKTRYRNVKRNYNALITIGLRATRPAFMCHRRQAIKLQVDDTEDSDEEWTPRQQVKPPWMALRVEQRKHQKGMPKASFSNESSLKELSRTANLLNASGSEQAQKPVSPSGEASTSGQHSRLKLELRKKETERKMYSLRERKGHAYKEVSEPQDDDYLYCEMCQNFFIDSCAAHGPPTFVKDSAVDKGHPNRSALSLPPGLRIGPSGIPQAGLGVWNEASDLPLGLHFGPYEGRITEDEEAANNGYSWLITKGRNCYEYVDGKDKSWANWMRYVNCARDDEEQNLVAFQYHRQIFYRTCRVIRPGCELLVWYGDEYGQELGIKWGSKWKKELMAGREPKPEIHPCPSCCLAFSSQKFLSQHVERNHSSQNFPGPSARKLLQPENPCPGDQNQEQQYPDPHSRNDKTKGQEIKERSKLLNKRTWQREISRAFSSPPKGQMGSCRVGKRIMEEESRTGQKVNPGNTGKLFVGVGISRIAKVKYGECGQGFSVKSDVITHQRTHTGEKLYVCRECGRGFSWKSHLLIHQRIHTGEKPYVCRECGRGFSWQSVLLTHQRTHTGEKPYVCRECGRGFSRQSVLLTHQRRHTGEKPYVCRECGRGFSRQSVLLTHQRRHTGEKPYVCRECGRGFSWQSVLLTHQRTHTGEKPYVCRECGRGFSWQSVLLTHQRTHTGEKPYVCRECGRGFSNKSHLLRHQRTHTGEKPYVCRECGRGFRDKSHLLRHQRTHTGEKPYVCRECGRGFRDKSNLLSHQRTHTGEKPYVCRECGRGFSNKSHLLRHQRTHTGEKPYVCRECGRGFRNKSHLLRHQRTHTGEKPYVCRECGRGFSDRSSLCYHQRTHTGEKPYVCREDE
T1 sequence (Q96LA8 whole entry, species assumed): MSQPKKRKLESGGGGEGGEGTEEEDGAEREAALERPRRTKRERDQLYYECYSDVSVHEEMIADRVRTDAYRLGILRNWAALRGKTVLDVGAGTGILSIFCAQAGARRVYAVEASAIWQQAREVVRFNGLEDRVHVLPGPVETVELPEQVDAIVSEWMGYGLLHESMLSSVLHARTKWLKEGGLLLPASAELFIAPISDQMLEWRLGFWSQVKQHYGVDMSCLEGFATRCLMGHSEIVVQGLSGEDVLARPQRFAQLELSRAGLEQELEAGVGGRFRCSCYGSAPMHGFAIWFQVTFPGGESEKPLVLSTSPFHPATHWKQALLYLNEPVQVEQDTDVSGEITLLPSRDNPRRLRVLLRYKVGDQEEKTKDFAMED

| inhibition of enzymatic activity (PRMT6) | inhibition of enzymatic activity (PRDM9) | inhibition of enzymatic activity (PRMT4) | inhibition of enzymatic activity (GLP) | SMILES |
| --- | --- | --- | --- | --- |
| not dramatically altering the activity | inhibits | inhibits | not dramatically altering the activity | CSC[C@H]1O[C@@H](n2cnc3c(N)nc(NCCNC(=O)OC(C)(C)C)nc32)[C@H](O)[C@@H]1O [Compound 16A, tert-butyl (2-((6-amino-9-((2R,3R,4S,5S)-3,4-dihydroxy-5-((methylthio)methyl)tetrahydrofuran-2-yl)-9H-purin-2-yl)amino)ethyl)carbamate] |
| some modest inhibition | did not show appreciable inhibition | did not show appreciable inhibition | did not show appreciable inhibition | CCNC(=O)[C@H]1O[C@@H](n2cnc3c(N)nc(Cl)nc32)[C@H](O)[C@@H]1O [Compound 20A-iii, 2-chloroadenosine-5′-N-ethylcarboxamide] |
| did not show appreciable inhibition | did not show appreciable inhibition | did not show appreciable inhibition | did not show appreciable inhibition | CCNC[C@H]1O[C@@H](n2cnc3c(N)nc(Cl)nc32)[C@H](O)[C@@H]1O [Compound 20A-iv, 2-chloroadenosine-5′-N-ethylamine] |
